Experimental data from patent publication US20070166772A1, “Methods for selecting compounds using antibodies with activity as antagonist, antagonist or allosteric modulators” (priority 2003, published 2007).

Key:
[1] = system: second extracellular loop of the 5-HT4 receptor (peptide C15Q); test: Inhibition ELISA (IE): anti-peptide antibody against 5-HT4 receptor on the coated synthetic peptide C15Q; type: binding; conditions: FIG. 3
Method: • Coating • Corresponding peptide is dissolved extemporaneously in appropriate buffer. Peptide at calibrated concentration is coated on a highly absorbing microtitre plate. • Blocking of non-specific binding • Wash • The plate is washed with washing buffer (appendix 1). • Molecules to be screened on the peptide • Each molecule is dissolved and distributed on the plate.
Each molecule which is able to decrease the absorbance at 405 nm at around 20% from its control value is selected for the DMAE.
Five μg/ml of corresponding peptide (C15Q) was coated on a microtitre plate (Falcon, 96 wells). After blocking nonspecific binding sites with blocking buffer, polyclonal anti-C15Q antibodies at decreasing serial dilutions were allowed to react with the peptide.
The same protocol as mentioned above in “Example 1” was performed: […]

[2] = target: second extracellular loop of the muscarinic M2 receptor (homologue peptide) (Homo sapiens, UniProt P08172); test: Indirect Inhibition ELISA (IIE): antibody against M2 receptor, homologue peptide and ligand in liquid phase; type: binding; conditions: FIG. 5
Method: The selected molecule should beside binding the parent peptide in solid phase also be able to bind it in liquid phase. The latter would mime the in vivo conformation of the parent peptide. • Coating • Corresponding peptide is dissolved extemporaneously in appropriate buffer. Peptide at calibrated concentration is coated on a highly absorbing microtitre plate. • Blocking of on-specific binding • Wash • The plate is washed with washing buffer (appendix 1). • Selected molecules to be tested on IIE • Each molecule dissolved at known concentration is distributed on the plate. Immediately different cascade concentration of the parent peptide is added to the well. This is thereafter followed by the first antibody at AD50 dilution and incubated for an appropriate time and at an optimal temperature. • Wash • The plate is washed with washing buffer (appendix 1). • Secondary antibodies • Peroxidase conjugated goat anti-rabbit antibodies diluted at appropriate dilution (appendix 2) is allowed to react with the bound polyclonal anti-GPCR antibodies for an appropriate time and at an optimal temperature. • Wash
The same protocol as mentioned above in “Example 1 ” was performed: […]

second extracellular loop of the muscarinic M2 receptor (homologue peptide), sequence (P08172 163-182 limits assumed): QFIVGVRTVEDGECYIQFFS

inhibition of the interaction of the anti-peptide antibody raised against the 5-HT4 receptor with the corresponding synthetic peptide [1]	Compound	competition with the homologue peptide for binding the anti-peptide antibodies [2]
specifically inhibited	NCCc1c[nH]c2ccc(O)cc12 [5-HT, serotonin]	
	CC[N+](CC)(CC)CCOc1cccc(OCC[N+](CC)(CC)CC)c1OCC[N+](CC)(CC)CC [gallamine]	able to compete with the homologue peptide and hinder the recognition between the homologue peptide and the anti-peptide in liquid phase
